Assay results: patent US7501412B2, “Isoquinoline compounds and medicinal use thereof” (Mitsubishi Tanabe Pharma Corporation, priority 2002, dated 2009)
Counter-ions that a name gives are not always drawn.

Molecular target: T1, recombinant human PARP (Homo sapiens, UniProt P09874)
T1 construct: purchased Trevigen 4667-02X
T1 sequence (P09874 whole entry): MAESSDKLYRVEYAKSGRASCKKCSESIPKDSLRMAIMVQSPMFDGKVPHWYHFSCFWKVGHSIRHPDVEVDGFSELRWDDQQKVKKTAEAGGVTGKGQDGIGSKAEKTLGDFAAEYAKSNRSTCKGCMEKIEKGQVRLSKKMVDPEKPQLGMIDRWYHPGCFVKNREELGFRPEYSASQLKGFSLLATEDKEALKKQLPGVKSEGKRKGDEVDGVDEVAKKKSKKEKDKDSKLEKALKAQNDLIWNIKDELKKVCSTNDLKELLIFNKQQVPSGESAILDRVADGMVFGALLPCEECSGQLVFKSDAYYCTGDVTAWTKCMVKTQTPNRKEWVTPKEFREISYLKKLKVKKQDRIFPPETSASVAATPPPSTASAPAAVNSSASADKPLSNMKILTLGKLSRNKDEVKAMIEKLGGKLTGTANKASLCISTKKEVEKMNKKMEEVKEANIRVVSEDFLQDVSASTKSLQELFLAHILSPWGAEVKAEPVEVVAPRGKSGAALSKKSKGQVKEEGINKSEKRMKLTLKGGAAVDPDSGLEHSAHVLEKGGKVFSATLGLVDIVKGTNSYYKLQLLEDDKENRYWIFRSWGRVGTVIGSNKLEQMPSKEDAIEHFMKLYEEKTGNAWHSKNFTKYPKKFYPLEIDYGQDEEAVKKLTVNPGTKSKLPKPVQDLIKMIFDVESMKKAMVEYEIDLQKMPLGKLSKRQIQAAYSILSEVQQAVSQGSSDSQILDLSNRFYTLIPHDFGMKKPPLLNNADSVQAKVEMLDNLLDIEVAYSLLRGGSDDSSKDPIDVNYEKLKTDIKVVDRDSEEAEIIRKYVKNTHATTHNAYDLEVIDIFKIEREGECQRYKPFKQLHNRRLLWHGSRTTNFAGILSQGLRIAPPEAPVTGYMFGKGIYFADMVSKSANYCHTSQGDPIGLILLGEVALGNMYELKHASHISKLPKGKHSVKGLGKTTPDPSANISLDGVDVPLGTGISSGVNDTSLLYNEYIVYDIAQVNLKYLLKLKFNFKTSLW
Assay: PARP enzyme activity inhibitory action
Type: biochemical
Settings: recombinant human PARP (Trevigen), 3H-NAD, activated DNA, 25° C. for 15 min
Procedure: After incubation at 25° C. for 15 min., the reaction was stopped by adding 20% trichloroacetic acid, and the resulting acid insoluble fraction was adsorbed to a GF/B filter. Then, the filter was washed several times with 5% trichloroacetic acid, and the radioactivity on the filter was measured with a liquid scintillation counter.
With `O=C1NCCc2c(OCCCCN3CCCCC3)cccc21` [DPQ, 3,4-dihydro-5-[4-(1-piperidinyl)-butoxy]-1(2H)-isoquinolinone, reference compound] the IC50 was 1000 nM.
Work on `CN(C)CC(=O)c1c(N)[nH]c(=O)c2ccccc12` [Ex. 1, 3-amino-4-(2-(dimethylamino)acetyl)-2H-isoquinolin-1-one hydrochloride monohydrate] yielded an IC50 of 43 nM.
Work on `Cn1nc(CN2CCCC2)c2c3ccccc3c(=O)[nH]c21` [Ex. 7, 3-methyl-1-(pyrrolidin-1-yl)methyl-3H-pyrazolo[3,4-c]isoquinolin-5(4H)-one] yielded an IC50 of 32 nM.
`CN(C)CC(=O)c1c(N)[nH]c(=O)c2cc(F)ccc12` [Ex. 14, 3-Amino-4-(2-(dimethylamino)acetyl)-7-fluoro-2H-isoquinolin-1-one hydrochloride] showed an IC50 of 40 nM.
For `CN1CCN(Cc2nn(C)c3[nH]c(=O)c4ccccc4c23)CC1` [Ex. 21, 3-Methyl-1-((4-methylpiperazin-1-yl)methyl)-3H-pyrazolo[3,4-c]isoquinolin-5(4H)-one], the IC50 was 143 nM.
In the case of `Cc1[nH]c(=O)c2ccccc2c1CN1CCCC1` [Ex. 25, 3-Methyl-4-(pyrrolidin-1-yl)methyl-2H-isoquinolin-1-one], the IC50 is reported as 67 nM.
Work on `Cc1[nH]c(=O)c2cc(Cl)ccc2c1CN1CCCC1` [Ex. 27, 7-chloro-3-methyl-4-((pyrrolidin-1-yl)methyl)-2H-isoquinolin-1-one] yielded an IC50 of 39 nM.
`Cc1[nH]c(=O)c2cc(F)ccc2c1CN1CCCC1` [Ex. 28, 7-Fluoro-3-methyl-4-((pyrrolidin-1-yl)methyl)-2H-isoquinolin-1-one] showed an IC50 of 45 nM.
`O=c1[nH]cc(C2CCNCC2)c2ccccc12` [Ex. 31, 4-(piperidin-4-yl)-2H-isoquinolin-1-one hydrochloride] gave an IC50 of 31 nM.
`O=c1[nH]cc(C2CCN(CCO)CC2)c2ccccc12` [Ex. 32, 4-(1-(2-hydroxyethyl)piperidin-4-yl)-2H-isoquinolin-1-one] showed an IC50 of 34 nM.
Work on `CN1CCC(c2c[nH]c(=O)c3ccccc23)CC1` [Ex. 33, 4-(1-methylpiperidin-4-yl)-2H-isoquinolin-1-one] yielded an IC50 of 40 nM.
`O=c1[nH]cc(C2CCNCC2)c2ccc(Cl)cc12` [Ex. 44, 7-Chloro-4-(piperidin-4-yl)-2H-isoquinolin-1-one hydrochloride] showed an IC50 of 22 nM.
With `O=c1[nH]cc(C2CCNCC2)c2ccc(F)cc12` [Ex. 45, 7-Fluoro-4-(piperidin-4-yl)-2H-isoquinolin-1-one hydrochloride] the IC50 was 22 nM.
For `CN1CCC(c2c[nH]c(=O)c3cc(Cl)ccc23)CC1` [Ex. 46, 7-Chloro-4-(1-methylpiperidin-4-yl)-2H-isoquinolin-1-one], the IC50 was 37 nM.
Work on `CN1CCC(c2c[nH]c(=O)c3cc(F)ccc23)CC1` [Ex. 47, 7-Fluoro-4-(1-methylpiperidin-4-yl)-2H-isoquinolin-1-one hydrochloride] yielded an IC50 of 23 nM.
`O=c1[nH]cc(C2CCN(CCO)CC2)c2ccc(F)cc12` [Ex. 48, 7-Fluoro-4-(1-(2-hydroxyethyl)piperidin-4-yl)-2H-isoquinolin-1-one hydrochloride] showed an IC50 of 24 nM.
With `CN1CCC(c2nn(C)c3[nH]c(=O)c4ccccc4c23)CC1` [Ex. 209, 1-(1-methylpiperidin-4-yl)-3-methyl-pyrazolo[3,4-c]isoquinolin-5(4H)-one] the IC50 was 43 nM.
For `CCN1CCC(c2nn(C)c3[nH]c(=O)c4ccccc4c23)CC1` [Ex. 210, 1-(1-Ethylpiperidin-4-yl)-3-methyl-pyrazolo[3,4-c]isoquinolin-5(4H)-one], the IC50 was 25 nM.
Work on `CCN1CCC(c2c[nH]c(=O)c3cc(F)ccc23)CC1` [Ex. 212, 7-Fluoro-4-(1-ethylpiperidin-4-yl)-2H-isoquinolin-1-one] yielded an IC50 of 47 nM.
With `Cn1nc(C2CCNCC2)c2c3ccc(F)cc3c(=O)[nH]c21` [Ex. 221, 7-Fluoro-1-(piperidin-4-yl)-3-methyl-pyrazolo[3,4-c]isoquinolin-5(4H)-one hydrochloride] the IC50 was 30 nM.
Work on `CN1CCC(c2nn(C)c3[nH]c(=O)c4cc(F)ccc4c23)CC1` [Ex. 222, 7-Fluoro-1-(1-methylpiperidin-4-yl)-3-methyl-pyrazolo[3,4-c]isoquinolin-5(4H)-one] yielded an IC50 of 44 nM.
`CCN1CCC(c2nn(C)c3[nH]c(=O)c4cc(F)ccc4c23)CC1` [Ex. 223, 1-(1-Ethylpiperidin-4-yl)-7-fluoro-3-methyl-pyrazolo[3,4-c]isoquinolin-5(4H)-one] gave an IC50 of 30 nM.
`CCCN1CCC(c2nn(C)c3[nH]c(=O)c4cc(F)ccc4c23)CC1` [Ex. 225, 7-Fluoro-1-(1-propylpiperidin-4-yl)-3-methyl-pyrazolo[3,4-c]isoquinolin-5(4H)-one] gave an IC50 of 42 nM.
In the case of `CCCN1CCC(c2nn(C)c3[nH]c(=O)c4ccccc4c23)CC1` [Ex. 226, 1-(1-Propylpiperidin-4-yl)-3-methyl-pyrazolo[3,4-c]isoquinolin-5(4H)-one], the IC50 is reported as 47 nM.

Test system: not given
Assay: not given
Settings: not given
With `CN1CCC(c2c[nH]c(=O)c3c(F)cccc23)CC1` the melting point was 227.6 to 229.3 °C.
Compound `Cc1ccc2c(C3CCN(C)CC3)c[nH]c(=O)c2c1` has a melting point of 212.8 to 214.8 °C.
In the case of `CN1CCC(c2c[nH]c(=O)c3cc(C(F)(F)F)ccc23)CC1` (as salt: hydrochloride) [Example 198, 4-(1-Methylpiperidin-4-yl)-7-trifluoromethyl-2H-isoquinolin-1-one], the melting point is reported as 231.8 to 234.6 °C.
For `COc1ccc2c(C3CCN(C)CC3)c[nH]c(=O)c2c1` [Example 201, 7-Methoxy-4-(1-methylpiperidin-4-yl)-2H-isoquinolin-1-one], the melting point was 224.9 to 226.2 °C.
